According to patent US20250263408A1 (Uniquest Pty Ltd, priority 2022, published 2025):
pEC50: −log10 of the molar value.

Assays:
Ba/F3-Syk cells = molecular target: T1, Ba/F3-Syk cells (Homo sapiens, UniProt P43405); assay: Ba/F3 Proliferation Assay, Ba/F3-Syk cells (Resazurin); assay type: cell-based; settings: 48-hour incubation
T1 construct: fused on or other part: Possible but unprinted fusion partner: TEL (ETV6), the usual partner for Ba/F3 lines transformed by Syk; Nothing on a partner is printed
Procedure: (§1) Ba/F3-Syk and Ba/F3-WT (wild type) cells were maintained at ≤1×10^6 cell/mL in RPMI (Life Technologies) with 10% FBS at 37° C. and 5% CO2 for a maximum of four weeks. Ba/F3-WT additionally contained 2 ng/mL mIL-3 (R&D Systems) to induce cellular growth. Cells were counted and dispensed at 5000 cells/well using a Multidrop Liquid Dispenser in a volume of 45 μL into black 384-well TC treated plates (Greiner) and incubated for four hours in complete media (+mIL-3 for Ba/F3-WT). Compounds were serially diluted in 100% DMSO, prior to an intermediate dilution in RPMI media. 5 μL of compound (0.4% final DMSO) was added to the cells, followed by a 48-hour incubation period. 5 μL of Resazurin (60 μM final) was then added and cells were incubated at 37° C. for three hours, before fluorescence (λex530/λem585) was measured using an Ensight Multimode Plate Reader (Perkin Elmer).

[1] = test system: Ba/F3-WT (wild type) cells; assay: Ba/F3 Proliferation Assay, Ba/F3-WT (wild type) cells with mIL-3 (Resazurin); assay type: cell-based; settings: Ba/F3-WT cells +mIL-3, 48-hour incubation
Procedure: as §1

Row | Compound | pEC50 (Ba/F3-Syk cells) | pEC50 ([1]; Mus musculus, BaF3, 48 h) | pEC50 [1]
1 | CC[C@H](C)n1ccc(-c2cc(OC[C@@H]3CNCCO3)c3nccnc3c2)c1 [Compound 8.25, 7-{1-[(2S)-butan-2-yl]-1H-pyrrol-3-yl}-5-{[(2S)-morpholin-2-yl]methoxy}quinoxaline] | 7.94 | < 6.00 | 
2 | O=C1CCn2cc(-c3cc4ncccc4c(OC[C@@H]4CNCCO4)n3)cc21 [Compound 2.78, 6-(5-{[(2S)-morpholin-2-yl]methoxy}-1,6-naphthyridin-7-yl)-2,3-dihydro-1H-pyrrolizin-1-one] | 6.83 | 5.31 | 
3 | CC1(C)CNC[C@H](COc2nc(-c3cnn(C(C)(C)C)c3)cc3ncccc23)O1 [Compound 2.82, 7-(1-tert-butyl-1H-pyrazol-4-yl)-5-{[(2R)-6,6-dimethylmorpholin-2-yl]methoxy}-1,6-naphthyridine] | 6.90 | 5.64 | 
4 | Cn1cc(-c2cc3ncccc3c(OC[C@@H]3CN[C@H]4CCC[C@H]4O3)n2)cn1 [Compound 2.73, 5-{[(2S,4aS,7aR)-octahydrocyclopenta[b][1,4]oxazin-2-yl]methoxy}-7-(1-methyl-1H-pyrazol-4-yl)-1,6-naphthyridine] | 7.49 | 5.47 | 
5 | Clc1csc(-c2cc3ncccc3c(OC[C@@H]3CNCCO3)n2)c1 [Compound 2.34, 7-(4-chlorothiophen-2-yl)-5-{[(2S)-morpholin-2-yl]methoxy}-1,6-naphthyridine] | 6.40 | 5.81 | 
6 | CCn1ccc(-c2cc(OC[C@@H]3CNCCO3)c3nccnc3c2)c1 [Compound 8.22, 7-(1-ethyl-1H-pyrrol-3-yl)-5-{[(2S)-morpholin-2-yl]methoxy}quinoxaline] | 7.90 | 6.18 | 
7 | Cn1ccc(-c2cc3ncccc3c(OC[C@@H]3CNC(C)(C)CCO3)n2)c1 [Compound 2.79, 5-{[(2S)-5,5-dimethyl-1,4-oxazepan-2-yl]methoxy}-7-(1-methyl-1H-pyrrol-3-yl)-1,6-naphthyridine] | 6.22 | < 5.00 | 
8 | CC(C)(C)n1cc(-c2cc3ncccc3c(OC[C@H]3O[C@H]4CCN[C@@H]3C4)n2)cn1 (single isomer, unassigned) [Compound 13.11] | 5.71 | < 5.00 | 
9 | COCCn1ccc(-c2cc3ncccc3c(O[C@H](C)[C@@H]3CNCCO3)n2)c1 [Compound 6.29, 7-[1-(2-methoxyethyl)-1H-pyrrol-3-yl]-5-[(1R)-1-[(2S)-morpholin-2-yl]ethoxy]-1,6-naphthyridine] | 7.51 | 5.84 | 
10 | CC1(C)CNC[C@@H](COc2cc(-c3ccn(C4CCC4)c3)cc3ncccc23)O1 [Compound 7.5, 7-(1-cyclobutyl-1H-pyrrol-3-yl)-5-{[(2S)-6,6-dimethylmorpholin-2-yl]methoxy}quinoline] | 7.44 | 5.68 | 
11 | CCn1ccc(-c2cc(O[C@H](C)[C@@H]3CNCC(C)(C)O3)c3nccnc3c2)c1 [Compound 8.12, 5-[(1R)-1-[(2S)-6,6-dimethylmorpholin-2-yl]ethoxy]-7-(1-ethyl-1H-pyrrol-3-yl)quinoxaline] | 8.11 | 6.27 | 
12 | CC(C)(C)n1cc(-c2cc3ncccc3c(OC[C@@H]3CN[C@H]4CCC[C@H]4O3)n2)cn1 (stereo in doubt) [Compound 2.94, 5-{[(2S,4aS,7aR)-octahydrocyclopenta[b][1,4]oxazin-2-yl]methoxy}-7-(1-tert-butyl-1H-pyrazol-4-yl)-1,6-naphthyridine] | 6.84 |  | 
13 | C[C@@H]1CNC[C@@H](COc2cc(-c3cnn(C(C)(C)C)c3)cc3nccnc23)O1 [Compound 12.7, 7-(1-tert-butyl-1H-pyrazol-4-yl)-5-{[(2S,6R)-6-methylmorpholin-2-yl]methoxy}quinoxaline] | 8.04 | 6.00 | 
14 | Cc1cc(-c2cc3ncccc3c(OC[C@@H]3CNCCO3)n2)c(C)s1 [Compound 2.37, 7-(2,5-dimethylthiophen-3-yl)-5-{[(2S)-morpholin-2-yl]methoxy}-1,6-naphthyridine] | 5.91 | 5.55 | 
15 | FC(F)Cn1ccc(-c2cc(OC[C@@H]3CNCCCO3)c3nccnc3c2)c1 [Compound 8.20, 7-[1-(2,2-difluoroethyl)-1H-pyrrol-3-yl]-5-{[(2S)-1,4-oxazepan-2-yl]methoxy}quinoxaline] | 7.56 | 5.73 | 
16 | 7-(1-tert-butyl-1H-pyrazol-4-yl)-5-{[(2R)-2-ethylmorpholin-2-yl]methoxy}-1,6-naphthyridine [Compound 10.15] | 7.04 |  | 5.78

Row | Compound | pEC50 (Ba/F3-Syk cells) | pEC50 ([1]; Mus musculus, BaF3, 48 h) | pEC50 [1]
17 | Cn1ccc(-c2cc(OC[C@@H]3CNCC4(CC4)O3)c3nccnc3c2)c1 [Compound 12.4, 7-(1-methyl-1H-pyrrol-3-yl)-5-{[(5S)-4-oxa-7-azaspiro[2.5]octan-5-yl]methoxy}quinoxaline] | 7.56 | 5.51 | 
18 | CC(C)(C)n1cc(-c2cc3ncccc3c(O[C@H]3CC[C@@H]4NCCO[C@@H]43)n2)cn1 (relative stereo) [Compound 2.91, 5-[rel-(4aS,7S,7aS)-octahydrocyclopenta[b][1,4]oxazin-7-yloxy]-7-(1-tert-butyl-1H-pyrazol-4-yl)-1,6-naphthyridine] | 7.29 | 5.98 | 
19 | Clc1ccc(-c2cc3ncccc3c(OC[C@@H]3CNCCO3)n2)s1 [Compound 2.33, 7-(5-chlorothiophen-2-yl)-5-{[(2S)-morpholin-2-yl]methoxy}-1,6-naphthyridine] | 6.41 | 5.80 | 
20 | Clc1cc(-c2cc3ncccc3c(OC[C@@H]3CNCCO3)n2)cs1 [Compound 2.39, 7-(5-chlorothiophen-3-yl)-5-{[(2S)-morpholin-2-yl]methoxy}-1,6-naphthyridine] | 6.61 | 5.77 | 
21 | CC[C@@H]1CNC[C@@H](COc2nc(-c3cnn(C(C)(C)C)c3)cc3ncccc23)O1 [Compound 2.93, 7-(1-tert-butyl-1H-pyrazol-4-yl)-5-{[(2S,6R)-6-ethylmorpholin-2-yl]methoxy}-1,6-naphthyridine] | 7.56 | 5.91 | 
22 | FC(F)Cn1cc(-c2cc(OC[C@@H]3CNCCCO3)c3cccnc3c2)cn1 [Compound 7.15, 7-[1-(2,2-difluoroethyl)-1H-pyrazol-4-yl]-5-{[(2S)-1,4-oxazepan-2-yl]methoxy}quinoline] | 7.01 | 5.56 | 
23 | CC(C)n1cc(-c2cc3ncccc3c(OC[C@@H]3CNCC(C)(C)CO3)n2)cn1 [Compound 10.12, 5-{[(2S)-6,6-dimethyl-1,4-oxazepan-2-yl]methoxy}-7-[1-(propan-2-yl)-1H-pyrazol-4-yl]-1,6-naphthyridine] | 7.06 | 5.72 | 
24 | CC1(C)CNC[C@@H](COc2nc(-c3ccn(C4CC4(F)F)c3)cc3ncccc23)O1 (stereo partly drawn) [Compound 6.18, 7-[1-(2,2-difluorocyclopropyl)-1H-pyrrol-3-yl]-5-{[(2S)-6,6-dimethylmorpholin-2-yl]methoxy}-1,6-naphthyridine] | 7.44 | 5.48 | 
25 | CC(C)(C)n1cc(-c2cc3ncccc3c(OC[C@H]3OC[C@@H]4C[C@H]3N4)n2)cn1 (relative stereo) [Compound 2.97, 7-(1-tert-butyl-1H-pyrazol-4-yl)-5-{[rel-(1R,2S,5S)-3-oxa-6-azabicyclo[3.1.1]heptan-2-yl]methoxy}-1,6-naphthyridine] | 6.46 |  | 5.37
26 | CC(C)n1cc(-c2cc(OC[C@@H]3CNCC4(CC4)O3)c3cccnc3c2)cn1 [Compound 3.21, 5-{[(SS)-4-oxa-7-azaspiro[2.5]octan-5-yl]methoxy}-7-[1-(propan-2-yl)-1H-pyrazol-4-yl]quinoline] | 7.88 | 6.21 | 
27 | CC(C)(C)n1ccc(-c2cc3ncccc3c(OC[C@@H]3CNCC4(CC4)O3)n2)c1 [Compound 2.61, 7-(1-tert-butyl-1H-pyrrol-3-yl)-5-{[(5S)-4-oxa-7-azaspiro[2.5]octan-5-yl]methoxy}-1,6-naphthyridine] | 8.01 | 5.58 | 
28 | c1cnc2cc(-c3ccn(C4CCC4)c3)cc(OC[C@@H]3CNCCO3)c2c1 [Compound 7.3, 7-(1-cyclobutyl-1H-pyrrol-3-yl)-5-{[(2S)-morpholin-2-yl]methoxy}quinoline] | 7.13 | 5.54 | 
29 | C[C@H](Oc1nc(-c2ccn(C)c2)cc2ncccc12)[C@@H]1CNCC(C)(C)O1 [Compound 2.64, 5-[(1S)-1-[(2S)-6,6-dimethylmorpholin-2-yl]ethoxy]-7-(1-methyl-1H-pyrrol-3-yl)-1,6-naphthyridine] | 6.60 | < 5.00 | 
30 | C[C@@H](Oc1cc(-c2cnn(C)c2)cc2ncccc12)[C@@H]1CNCC(C)(C)O1 [Compound 11.4, 5-[(1R)-1-[(2S)-6,6-dimethylmorpholin-2-yl]ethoxy]-7-(1-methyl-1H-pyrazol-4-yl)quinoline] | 7.16 | 6.13 | 
31 | CC[C@H]1CNC[C@@H](COc2nc(-c3cnn(C(C)(C)C)c3)cc3ncccc23)O1 [Compound 2.92, 7-(1-tert-butyl-1H-pyrazol-4-yl)-5-{[(2S,6S)-6-ethylmorpholin-2-yl]methoxy}-1,6-naphthyridine] | 7.54 | 6.22 | 
32 | CC(C)(C)n1cc(-c2cc3ncccc3c(OC[C@@H]3CN[C@H]4CCC[C@H]4O3)n2)cn1 (relative stereo) [Compound 2.85, 5-{[rel-(2S,4aS,7aR)-octahydrocyclopenta[b][1,4]oxazin-2-yl]methoxy}-7-(1-tert-butyl-1H-pyrazol-4-yl)-1,6-naphthyridine] | 7.23 |  | 
